Molecules are shown by their SMILES.

Sequence of ImiS (O31272 entry or part of it): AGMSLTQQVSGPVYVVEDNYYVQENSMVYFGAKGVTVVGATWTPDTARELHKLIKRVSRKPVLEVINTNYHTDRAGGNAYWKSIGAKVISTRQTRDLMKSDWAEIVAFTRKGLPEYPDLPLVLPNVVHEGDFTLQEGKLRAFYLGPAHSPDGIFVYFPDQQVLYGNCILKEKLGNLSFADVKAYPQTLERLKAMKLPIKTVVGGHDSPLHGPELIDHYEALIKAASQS

One assay concerns the target ImiS (Aeromonas veronii, UniProt O31272). In words: Enzyme inhibition assay, MβL ImiS, cefazolin as substrate. Type of assay: biochemical. The settings on record: 25 °C, 30 min premix. Here is the method: (§1) To test the inhibitory activity of compounds 1–12 against MβLs, three representative MβLs, VIM-2 (B1), ImiS (B2), and L1 (B3), were chosen for evaluation.
(§2) The enzyme inhibition activity assay was carried out on an Agilent-8453 UV-visible spectrometer. […] Cefazolin (Sigma-Aldrich, Burlington, MO, USA), with a concentration of 20 to 140 μM, was taken as the substrate. The enzyme and inhibitor were premixed with the corresponding MβL and the thiazolethioacetamides for 30 min. The IC50 values were measured at 25 °C with the inhibitor concentrations of 0 and 1000 μM, and analyzed through IC50 calculation tool (AAT Bioquest Inc., sunnyvale, CA, USA).
Regarding `O=C(CSc1nnc(-c2ccccc2O)s1)Nc1ccc(Cl)cc1` [Compound 1], the IC50 came to 580 nM.

On to `O=C(CSc1nnc(-c2ccccc2O)s1)Nc1cccc(Cl)c1` [Compound 2], for which the 50% inhibitory concentration (IC50) is 530 nM.

The molecule `O=C(CSc1nnc(-c2ccccc2O)s1)Nc1ccc(Cl)c(Cl)c1` [Compound 3] had an IC50 of 690 nM.

`O=C(CSc1nnc(-c2ccccc2O)s1)Nc1ccc(Cl)cc1Cl` [Compound 4]: 580 nM corresponded to half-maximal inhibition (IC50).

`O=C(CSc1nnc(-c2ccccc2O)s1)Nc1ccc(Cl)cc1[N+](=O)[O-]` [Compound 5] gave an IC50 of 170 nM.

In turn, `O=C(CSc1nnc(-c2ccccc2O)s1)Nc1cc(Cl)ccc1[N+](=O)[O-]` [Compound 6] displayed an IC50 of 360 nM.

Regarding `O=C(CSc1nnc(-c2ccccc2O)s1)Nc1ccc([N+](=O)[O-])cc1Cl` [Compound 7], half-maximal inhibition (IC50) was put at 420 nM.

As to `O=C(CSc1nnc(-c2ccccc2O)s1)Nc1ccc(OC(F)(F)F)cc1` [Compound 8], the IC50 was determined as 310 nM.

`O=C(CSc1nnc(-c2ccccc2O)s1)Nc1ccc(F)cc1` [Compound 9] had a half-inhibitory concentration (IC50) of 460 nM.

In turn, `O=C(CSc1nnc(-c2ccccc2O)s1)Nc1cccc(F)c1` [Compound 10] came in with an IC50 of 610 nM.

`O=C(CSc1nnc(-c2ccccc2O)s1)Nc1ccccc1F` [Compound 11]: the IC50 came out at 680 nM.

As for `O=C(CSc1nnc(-c2ccccc2O)s1)Nc1c(F)cccc1F` [Compound 12], inhibition was half-maximal at 700 nM (IC50).

The next assay has as its target VIM-2 (Escherichia coli, UniProt Q5U7L7). Briefly: Enzyme inhibition assay, MβL VIM-2, cefazolin as substrate. Type of assay: biochemical. To be noted: 25 °C, 30 min premix. Here is the method:
as §1, §2
On to `O=C(CSc1nnc(-c2ccccc2O)s1)Nc1ccc(OC(F)(F)F)cc1` [Compound 8], for which inhibition was half-maximal at 2200 nM (IC50).

In turn, `O=C(CSc1nnc(-c2ccccc2O)s1)Nc1c(F)cccc1F` [Compound 12] registered an IC50 of 19200 nM.

Broadly, the IC50 is the concentration that gives 50% inhibition. A lower IC50 goes with inhibition by little substance.

These data come from article PMC7175138, “Synthesis and Bioactivity of Thiazolethioacetamides as Potential Metallo-β-Lactamase Inhibitors” (Antibiotics, 2020).
